In general, IC50 refers to the concentration needed to halve the response being measured. In general, AC50 refers to the concentration giving half of the maximal activity seen.

For test [1], the target named is human tankyrase 1 PARP catalytic domain, TNKS1P (Homo sapiens (Human), UniProt O95271). As to the kind of experiment: TNKS1 autoparsylation assay (LC/MS detection of nicotinamide). To be noted: read-out: TNKS1 AP IC50, 20 nM enzyme, 250 μM β-NAD+, 60 min.
Test [2] concerns Non-small lung cancer ABC-1 cells. Kind of test: Cellular proliferation assay (CellTiter-Glo). The conditions noted are these: Homo sapiens, 72 h; ABC-1 cells, 3 days of compound treatment; read-out: ABC-1 IC50. The test is classed as cell-based.
Description: Cellular Proliferation Assay to Determine Compound Inhibition of Cancer Cell Growth
Viable cells were measured after 3 days of compound treatment using the CellTiter-Glo assay (Promega, G7570). Assay was performed following the manufacture protocol.
The target of test [3] is tankyrase 2 protein PARP domain, TNKS2P (Homo sapiens (Human), UniProt Q9H2K2). Kind of test: TNKS2 autoparsylation assay (LC/MS detection of nicotinamide). To be noted: read-out: TNKS2 AP IC50, 20 nM enzyme, 250 μM β-NAD+, 60 min.
Description: Biochemical Assay to Determine Compound Inhibition of TNKS Enzyme Activity
The autoparsylation activity of the TNKS 1/2 or PARP1/2 enzymes was measured by the liquid chromatography-mass spectrometry (LC/MS) detection of nicotinamide as readout. Compound activity in inhibiting the TNKS and PARP autoparsylation was evaluated by IC50 measurements. […] For the background control wells, 10 μL of the 5× quenching solution per well was added prior to the addition of β-NAD^+. The % Inhibition was calculated as: (Control−Sample)/(Control−Background)*100.
For the next test, the target named is PARP2 (Mus musculus (Mouse), UniProt O88554). Kind of test: PARP2 autoparsylation assay (LC/MS detection of nicotinamide). The test is classed as biochemical. To be noted: 20 nM enzyme, 250 μM β-NAD+, 60 min. As to the method:
(§1) The autoparsylation activity of the TNKS 1/2 or PARP1/2 enzymes was measured by the liquid chromatography-mass spectrometry (LC/MS) detection of nicotinamide as readout. Compound activity in inhibiting the TNKS and PARP autoparsylation was evaluated by IC50 measurements.

Test [4] concerns Wnt ligand-induced signaling in HEK293 cells. As to the kind of experiment: Wnt-responsive Super-TOpFlash (STF) luciferase reporter gene assay. To be noted: Homo sapiens, Wnt3A condition medium. The test is classed as cell-based. The gist of the method: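 HEK293 cells (8000/well, 5% FBS medium) treated with 20% mouse L-cell Wnt3A conditioned medium plus compounds in 10-point serial dilution; luciferase read next day. Inhibition calculated relative to Wnt3A-induced signal without compound and background without Wnt3A CM or compound.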

For another test, the target named is Human PARP1 (Homo sapiens (Human), UniProt P09874). Kind of test: PARP1 autoparsylation assay (LC/MS detection of nicotinamide). The test is classed as biochemical. The conditions noted are these: 20 nM enzyme, 250 μM β-NAD+, 60 min. The procedure: as §1
The test system of test [5] is Axin2 protein in SW480 cells. As to the kind of experiment: Cellular ELISA assay of Axin2 protein stabilization. The test is classed as cell-based. The conditions noted are these: Homo sapiens, 24 hrs, read-out: Axin AC50. The gist of the method:
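SW480 colorectal cells seeded overnight, treated with compound, then lysed. Axin2 in lysates measured by sandwich ELISA: anti-Axin2 capture antibody coated at 1 μg/ml (pH 9.2), lysate 2 h at room temperature, biotinylated anti-Axin2 detection 2 h, then streptavidin-HRP 30 min.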
(In general: An ELISA detects its analyte on a solid surface through an enzyme-linked reagent.)

Sequence of PARP2 (O88554 whole entry): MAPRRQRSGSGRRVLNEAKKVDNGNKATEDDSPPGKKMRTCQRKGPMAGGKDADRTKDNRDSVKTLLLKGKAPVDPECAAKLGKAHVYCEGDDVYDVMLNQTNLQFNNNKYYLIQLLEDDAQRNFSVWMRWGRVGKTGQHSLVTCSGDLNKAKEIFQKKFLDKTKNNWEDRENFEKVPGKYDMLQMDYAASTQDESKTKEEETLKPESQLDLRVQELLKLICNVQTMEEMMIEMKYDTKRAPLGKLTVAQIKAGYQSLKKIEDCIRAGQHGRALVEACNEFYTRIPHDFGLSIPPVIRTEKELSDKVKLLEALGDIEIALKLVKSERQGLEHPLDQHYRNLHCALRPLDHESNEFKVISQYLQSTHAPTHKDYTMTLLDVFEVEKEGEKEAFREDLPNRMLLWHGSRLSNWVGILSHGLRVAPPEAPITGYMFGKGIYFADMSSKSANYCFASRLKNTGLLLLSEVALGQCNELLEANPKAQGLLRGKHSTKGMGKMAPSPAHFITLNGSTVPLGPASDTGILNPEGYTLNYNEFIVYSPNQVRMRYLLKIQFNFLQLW
Sequence of human tankyrase 1 PARP catalytic domain, TNKS1P (O95271 1112-1317): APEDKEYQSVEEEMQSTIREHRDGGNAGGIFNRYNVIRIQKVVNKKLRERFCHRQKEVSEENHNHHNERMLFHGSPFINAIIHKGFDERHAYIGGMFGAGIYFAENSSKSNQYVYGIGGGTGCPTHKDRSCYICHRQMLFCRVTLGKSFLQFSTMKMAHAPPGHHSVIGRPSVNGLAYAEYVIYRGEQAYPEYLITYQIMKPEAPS
Sequence of Human PARP1 (P09874 whole entry): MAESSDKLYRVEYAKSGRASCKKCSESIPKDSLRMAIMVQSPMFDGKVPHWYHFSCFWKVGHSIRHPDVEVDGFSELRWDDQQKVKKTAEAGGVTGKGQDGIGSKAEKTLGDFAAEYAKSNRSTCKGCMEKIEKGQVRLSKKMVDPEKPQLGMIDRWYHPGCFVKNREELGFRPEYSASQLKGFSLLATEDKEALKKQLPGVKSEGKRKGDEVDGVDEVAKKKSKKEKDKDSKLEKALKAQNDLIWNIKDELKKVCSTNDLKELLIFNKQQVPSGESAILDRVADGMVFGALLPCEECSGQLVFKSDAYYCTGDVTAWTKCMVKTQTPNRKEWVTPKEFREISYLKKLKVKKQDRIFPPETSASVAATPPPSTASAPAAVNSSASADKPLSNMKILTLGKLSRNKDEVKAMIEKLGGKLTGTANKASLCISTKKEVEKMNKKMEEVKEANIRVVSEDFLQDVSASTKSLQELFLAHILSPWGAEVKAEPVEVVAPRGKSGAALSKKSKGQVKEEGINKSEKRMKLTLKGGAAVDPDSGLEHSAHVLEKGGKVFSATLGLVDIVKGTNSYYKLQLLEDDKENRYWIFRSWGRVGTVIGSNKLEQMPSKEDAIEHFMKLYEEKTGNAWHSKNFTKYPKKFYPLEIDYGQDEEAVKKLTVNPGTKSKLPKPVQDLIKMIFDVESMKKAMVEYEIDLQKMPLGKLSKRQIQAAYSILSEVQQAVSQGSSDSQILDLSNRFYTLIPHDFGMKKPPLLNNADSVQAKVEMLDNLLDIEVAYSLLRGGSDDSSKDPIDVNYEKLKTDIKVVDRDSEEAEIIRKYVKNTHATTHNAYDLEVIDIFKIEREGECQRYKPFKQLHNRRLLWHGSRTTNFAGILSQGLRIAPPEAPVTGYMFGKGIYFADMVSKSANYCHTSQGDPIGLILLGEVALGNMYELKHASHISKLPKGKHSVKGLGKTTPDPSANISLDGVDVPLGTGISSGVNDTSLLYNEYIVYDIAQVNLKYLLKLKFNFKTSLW
Sequence of tankyrase 2 protein PARP domain, TNKS2P (Q9H2K2 959-1164): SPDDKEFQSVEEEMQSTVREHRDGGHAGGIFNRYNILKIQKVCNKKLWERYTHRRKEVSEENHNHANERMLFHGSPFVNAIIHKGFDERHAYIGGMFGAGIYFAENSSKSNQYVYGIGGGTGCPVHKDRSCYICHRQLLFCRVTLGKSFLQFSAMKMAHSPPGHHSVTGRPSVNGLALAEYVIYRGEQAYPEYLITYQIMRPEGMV

For `CC[C@H](C)N(Cc1nc2c(c(=O)[nH]1)COCC2)C(=O)CN1CCC(C(=O)c2ccc(F)cc2)CC1` [Example 31, (S)—N-sec-Butyl-2-(4-(4-fluorobenzoyl)piperidin-1-yl)-N-((4-oxo-4,5,7,8-tetrahydro-3H-pyrano[4,3-d]pyrimidin-2-yl)methyl)acetamide], the IC50 in test [1] is 38 ± 3 nM; in test [2], 630 ± 400 nM; in test [3], 13 ± 1 nM; on PARP2 it was above 19000 nM; in test [4], 37 ± 9 nM; at Human PARP1 it was above 19000 nM. For the same compound, in test [5], the AC50 is 1100 ± 180 nM.

Consider `CC[C@@H](C)N(Cc1nc2c(c(=O)[nH]1)COCC2)C(=O)CN1CCC(C(=O)c2ccc(F)cc2)CC1` [Example 32, (R)—N-sec-Butyl-2-(4-(4-fluorobenzoyl)piperidin-1-yl)-N-((4-oxo-4,5,7,8-tetrahydro-3H-pyrano[4,3-d]pyrimidin-2-yl)methyl)acetamide], for which the IC50 in test [1] was 43 ± 2 nM; in test [2], 370 nM; in test [3], 13 ± 1 nM; on PARP2, above 19000 nM; in test [4] it was 49 ± 14 nM; on Human PARP1 it was above 19000 nM. Also, the AC50 in test [5] turned out to be 910 ± 150 nM.

For the compound `CC(C)N(Cc1nc2c(c(=O)[nH]1)COCC2)C(=O)CN1CCC(C(=O)c2ccc(F)cc2)CC1` [Example 33, 2-(4-(4-Fluorobenzoyl)piperidin-1-yl)-N-isopropyl-N-((4-oxo-4,5,7,8-tetrahydro-3H-pyrano[4,3-d]pyrimidin-2-yl)methyl)acetamide], the IC50 in test [1] was 95 ± 1 nM; in test [2], 690 ± 100 nM; in test [3], 20 ± 1 nM; against PARP2, above 19000 nM; in test [4], 59 ± 20 nM; against Human PARP1 it was above 19000 nM. The AC50 in test [5] was found to be 2800 ± 1400 nM.

For the compound `C[C@H](c1ccc(F)cc1)N(Cc1nc2c(c(=O)[nH]1)COCC2)C(=O)CN1CCC(C(=O)c2ccc(F)cc2)CC1` [Example 36, (R)-2-(4-(4-Fluorobenzoyl)piperidin-1-yl)-N-(1-(4-fluorophenyl)ethyl)-N-((4-oxo-4,5,7,8-tetrahydro-3H-pyrano[4,3-d]pyrimidin-2-yl)methyl)acetamide], the IC50 in test [1] is 104 ± 28 nM; in test [2], 2630 nM; in test [3], 25 ± 7 nM; against PARP2 it was above 19000 nM; in test [4], 127 ± 47 nM; on Human PARP1, above 19000 nM. For the same compound, the AC50 in test [5] was 1850 ± 310 nM.

On to `CC(c1ccc(F)cc1F)N(Cc1nc2c(c(=O)[nH]1)COCC2)C(=O)CN1CCC(C(=O)c2ccc(F)cc2)CC1` (centres unmarked) [Example 37, N-(1-(2,4-Difluorophenyl)ethyl)-2-(4-(4-fluorobenzoyl)piperidin-1-yl)-N-((4-oxo-4,5,7,8-tetrahydro-3H-pyrano[4,3-d]pyrimidin-2-yl)methyl)acetamide], for which the IC50 is 155 ± 34 nM in test [1]; 510 nM in test [2]; 39.5 ± 7.8 nM in test [3]; above 19000 nM against PARP2; 96 ± 19 nM in test [4]; above 19000 nM on Human PARP1. In addition, the AC50 in test [5] worked out at 960 ± 520 nM.

For the compound `O=C(c1ccc(F)cc1)C1CCN(CC(=O)N(Cc2nc3c(c(=O)[nH]2)COCC3)Cc2ccccc2F)CC1` [Example 39, 2-(4-(4-Fluorobenzoyl)piperidin-1-yl)-N-(2-fluorobenzyl)-N-((4-oxo-4,5,7,8-tetrahydro-3H-pyrano[4,3-d]pyrimidin-2-yl)methyl)acetamide], the IC50 in test [1] was 43 ± 1 nM; in test [2] it was 230 ± 99 nM; in test [3], 9 ± 1 nM; at PARP2 it was above 19000 nM; in test [4] it was 17 ± 3 nM; on Human PARP1 it was above 19000 nM. Further, the AC50 in test [5] was determined as 112 ± 18 nM.

For the compound `O=C(c1ccc(F)cc1)C1CCN(CC(=O)N(Cc2nc3c(c(=O)[nH]2)COCC3)Cc2ccc(F)cc2F)CC1` [Example 40, N-(2,4-Difluorobenzyl)-2-(4-(4-fluorobenzoyl)piperidin-1-yl)-N-((4-oxo-4,5,7,8-tetrahydro-3H-pyrano[4,3-d]pyrimidin-2-yl)methyl)acetamide], the IC50 is 77 ± 5 nM in test [1]; 520 ± 14 nM in test [2]; 14 ± 1 nM in test [3]; above 19000 nM against PARP2; 28 ± 4 nM in test [4]; above 19000 nM on Human PARP1. In addition, the AC50 in test [5] was found to be 431 ± 40 nM.

Turning to `C[C@H](C1CC1)N(Cc1nc2c(c(=O)[nH]1)COCC2)C(=O)CN1CCC(C(=O)c2ccc(F)cc2)CC1` [Example 41, (R)—N-(1-Cyclopropylethyl)-2-(4-(4-fluorobenzoyl)piperidin-1-yl)-N-((4-oxo-4,5,7,8-tetrahydro-3H-pyrano[4,3-d]pyrimidin-2-yl)methyl)acetamide], the IC50 was 16 ± 1 nM in test [1]; 476 nM in test [2]; 32 ± 1 nM in test [3]; above 19000 nM against PARP2; 32 ± 1.4 nM in test [4]; above 19000 nM against Human PARP1. In test [5], the AC50 is 720 ± 150 nM.

With `C[C@@H](C1CC1)N(Cc1nc2c(c(=O)[nH]1)COCC2)C(=O)CN1CCC(C(=O)c2ccc(F)cc2)CC1` [Example 42, (S)—N-(1-Cyclopropylethyl)-2-(4-(4-fluorobenzoyl)piperidin-1-yl)-N-((4-oxo-4,5,7,8-tetrahydro-3H-pyrano[4,3-d]pyrimidin-2-yl)methyl)acetamide], the IC50 is 42 ± 3 nM in test [1]; 290 nM in test [2]; 10 ± 1 nM in test [3]; above 19000 nM against PARP2; 45.7 ± 4.9 nM in test [4]; above 19000 nM at Human PARP1. For the same compound, the AC50 in test [5] worked out at 589 ± 60 nM.

For the compound `O=C(c1ccc(F)cc1)C1CCN(CC(=O)N(CCF)Cc2nc3c(c(=O)[nH]2)COCC3)CC1` [Example 44, 2-[4-(4-Fluoro-benzoyl)-piperidin-1-yl]-N-(2-fluoro-ethyl)-N-(4-oxo-3,5,7,8-tetrahydro-4H-pyrano[4,3-d]pyrimidin-2-ylmethyl)-acetamide], the IC50 in test [1] is 72 ± 1.4 nM; in test [2], 6400 nM; in test [3], 19 ± 1.4 nM; against PARP2, above 19000 nM; in test [4], 1470 ± 360 nM; on Human PARP1, above 19000 nM. Also, in test [5], the AC50 was above 10000 nM.

As for `O=C(c1ccc(F)cc1)C1CCN(CC(=O)N(Cc2nc3c(c(=O)[nH]2)COCC3)CC(F)F)CC1` [Example 45, N-(2,2-Difluoro-ethyl)-2-[4-(4-fluoro-benzoyl)-piperidin-1-yl]-N-(4-oxo-3,5,7,8-tetrahydro-4H-pyrano[4,3-d]pyrimidin-2-ylmethyl)-acetamide], the IC50 in test [1] was 37 ± 17 nM; in test [2], 509 ± 47 nM; in test [3], 10.2 ± 7.4 nM; at PARP2, above 19000 nM; in test [4], 16 ± 9 nM; against Human PARP1 it was above 19000 nM. Besides, in test [5], the AC50 is 450 ± 90 nM.

On to `O=C(c1ccc(F)cc1)C1CCN(CC(=O)N(Cc2nc3c(c(=O)[nH]2)COCC3)CC(F)(F)F)CC1` [Example 48, 2-[4-(4-Fluoro-benzoyl)-piperidin-1-yl]-N-(4-oxo-3,5,7,8-tetrahydro-4H-pyrano[4,3-d]pyrimidin-2-ylmethyl)-N-(2,2,2-trifluoro-ethyl)-acetamide], for which the 50% inhibitory concentration (IC50) in test [1] is 55 ± 3 nM; in test [2] it was 790 ± 180 nM; in test [3], 14 ± 1 nM; at PARP2, above 19000 nM; in test [4], 14 ± 6 nM; against Human PARP1, above 19000 nM. The AC50 in test [5] was found to be 610 ± 240 nM.

As to `CC(c1cccs1)N(Cc1nc2c(c(=O)[nH]1)COCC2)C(=O)CN1CCC(C(=O)c2ccc(F)cc2)CC1` (centres unmarked) [Example 49, 2-[4-(4-Fluoro-benzoyl)-piperidin-1-yl]-N-(4-oxo-3,5,7,8-tetrahydro-4H-pyrano[4,3-d]pyrimidin-2-ylmethyl)-N-(1-thiophen-2-yl-ethyl)-acetamide], the IC50 is 47.5 ± 3.5 nM in test [1]; 170 nM in test [2]; 16.5 ± 0.7 nM in test [3]; above 19000 nM at PARP2; 16 ± 4 nM in test [4]; above 19000 nM against Human PARP1. Besides, the AC50 in test [5] was 86 ± 3 nM.

As to `COc1ccc(C(=O)C2CCN(CC(=O)N(Cc3nc4c(c(=O)[nH]3)COCC4)CC(F)F)CC2)cc1` [Example 50, N-(2,2-Difluoro-ethyl)-2-[4-(4-methoxy-benzoyl)-piperidin-1-yl]-N-(4-oxo-3,5,7,8-tetrahydro-4H-pyrano[4,3-d]pyrimidin-2-ylmethyl)-acetamide], the IC50 in test [1] was 18 ± 7 nM; in test [2], 45 nM; in test [3], 12 ± 1 nM; on PARP2, above 19000 nM; in test [4], 9.5 ± 0.5 nM; against Human PARP1, above 19000 nM. For the same compound, the AC50 in test [5] is 30 ± 6 nM.

For the origin of these results see patent US9181266B2, “2-piperidin-1-yl-acetamide compounds for use as tankyrase inhibitors” (NOVARTIS AG, priority 2011, dated 2015).
